These results are taken from patent publication US10654834B2 (Venenum Biodesign, LLC, priority 2016, dated 2020).

Data set [1] can be described thus: Absorption vs. first pass metabolism: Cmax in ICR mice with and without 1-aminobenzotriazole (ABT) pre-treatment. Format: in vivo, mouse. The conditions noted are these: 10 mg/kg p.o., ABT 150 mg/kg 2 h before. How it is done: Absorption Vs. First Pass Metabolism
In this study, we further examined the absorption as compared to first pass metabolism of the compounds of the present invention. ICR mice (Hilltop) were pre-treated with 1-aminobenzotriazole (ABT), a nonselective inhibitor of cytochrome P450 enzymes, to inhibit Cyp450-mediated degradation of the compounds in liver.
ABT was administered at 150 mg/kg in 5 mL/kg of 0.04% ethanol in 0.5% methyl cellulose (w/v) by oral gavage, 2 hours prior to test compound administration. The compounds (i.e., Compounds 56, 268, 249, 61, 126, and 199) were administered by oral gavage at 10 mg/kg in 10 mL/kg of 20% PEG400/80% (0.5% (w/v) CMC containing 0.25% (v/v) Tween 80) (v/v), 2 hours after the ABT treatment. Blood was collected via orbital bleeding at predose, 0.25, 0.5, 1, 2, and 4 hours post-dose and the quantification of compound levels in plasma was accomplished by means of LC-MS/MS analysis as described in Example 81. Reference compound “Propranolol” that is known to be metabolized by Cyp450 was used as a positive control.
FIG. 15 depicts the Cmax (nM) of the compounds of the present invention with and without ABT pre-treatment.

Data set [2] relates to Mouse STC-1 cells. Kind of data set: STC-1 GLP-1 assay (GLP-1 secretion). The class given is cell-based. The conditions noted are these: Mouse STC-1 cells, GLP-1 secretion, 2 h; read-out: Mouse STC-1 HTRF GLP-1 Activity (EC50). Summed up:
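Mouse STC-1 cells were plated two days ahead in DMEM with 10% charcoal-dextran stripped FBS, then exposed to compound in HBSS with protease inhibitors, DPP-IV inhibitor and 0.1% fatty acid free BSA for 2 h at 37° C. Active GLP-1 in supernatant was quantified by HTRF; EC50 derived from 12-point half-log curves.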
Background: Time-resolved FRET reads energy transfer from a long-lived donor to a nearby acceptor.

Data set [3] deals with T1, human TGR5 receptor (Homo sapiens, UniProt Q8TDU6).
T1 construct: host or cells: CHO-K1 (hTGR5-CHO)
T1 sequence (Q8TDU6 1-330): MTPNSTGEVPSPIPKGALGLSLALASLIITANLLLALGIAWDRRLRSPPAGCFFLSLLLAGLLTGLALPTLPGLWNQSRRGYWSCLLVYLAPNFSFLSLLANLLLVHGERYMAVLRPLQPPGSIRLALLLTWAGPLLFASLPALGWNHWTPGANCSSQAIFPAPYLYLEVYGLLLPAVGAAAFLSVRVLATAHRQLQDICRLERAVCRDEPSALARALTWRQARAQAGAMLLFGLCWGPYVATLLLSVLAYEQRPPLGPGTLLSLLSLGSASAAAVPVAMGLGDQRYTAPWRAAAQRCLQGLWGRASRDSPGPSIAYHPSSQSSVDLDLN
Briefly: Human TGR5 cAMP production assay (hTGR5-CHO cells, DiscoveRx cAMP XS+ kit). Format: cell-based. The conditions noted are these: luminescent cAMP assay, read-out: Human TGR5 Lum. cAMP Activity (EC50). The method in brief: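 CHO-K1 cells stably expressing hTGR5, in PBS with IBMX and cAMP antibody, treated with half-log compound dilutions for 1 h at room temperature. cAMP measured by enzyme-fragment complementation luminescence after overnight detection; EC50 values reported.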
A general note: cAMP levels reflect the balance of adenylyl cyclase and phosphodiesterase activity.

Data set [4] addresses T2, mouse TGR5 receptor (Mus musculus, UniProt Q80SS6).
T2 construct: host or cells: HEK293-EBNA (293 c18, ATCC CRL10852)
T2 sequence (Q80SS6 1-329): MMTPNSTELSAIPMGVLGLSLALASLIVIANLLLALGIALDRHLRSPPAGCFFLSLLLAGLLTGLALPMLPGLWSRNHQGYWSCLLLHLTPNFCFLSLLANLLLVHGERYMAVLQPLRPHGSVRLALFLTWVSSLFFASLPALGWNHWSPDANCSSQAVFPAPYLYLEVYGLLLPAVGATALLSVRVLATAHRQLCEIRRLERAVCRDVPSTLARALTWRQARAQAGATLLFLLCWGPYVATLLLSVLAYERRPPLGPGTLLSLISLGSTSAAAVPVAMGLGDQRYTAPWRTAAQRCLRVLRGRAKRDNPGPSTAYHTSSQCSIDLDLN
Kind of data set: Mouse TGR5 luminescent cAMP production assay (HEK293-EBNA cells, DiscoveRx cAMP XS+ kit). Format: cell-based. The conditions noted are these: HEK293-EBNA cells overexpressing mouse TGR5, luminescent cAMP assay; read-out: Mouse TGR5 Lum. cAMP Activity (EC50). The method in brief:
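HEK293-EBNA cells stably expressing mouse TGR5, resuspended in serum-free DMEM with 500 μM IBMX, were premixed 20 min with cAMP antibody, then exposed to half-log compound dilutions for 1 h at room temperature. cAMP was read by luminescent enzyme-fragment complementation (cAMP XS+) after overnight incubation; EC50 derived.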

Data set [5] in a line: 6-week DEXA body composition analysis in DIO mice. Format: in vivo, mouse. The conditions noted are these: 6 weeks BID dosing. An excerpt: In the next series of studies (Examples 93-99), Male DIO mice were received at 12 weeks of age (from Taconic), and were single-housed at the testing facility and acclimated for at least 2 weeks. The mice were provided a high fat diet [Research Diet D12492 (60% Fat kcal)] while in the testing facility. Before the study initiation, the animals were randomized into 5 experimental groups by body weight. The vehicle group contained only 0.5% carboxymethylcellulose (medium viscosity)+0.25% Tween-80. The second group contained 10 mg/kg of the DPP-IV inhibitor Sitagliptin while the third group contained 30 mg/kg Compound 268. The fourth group contained the combination of 10 mg/kg Sitagliptin and 30 mg/kg Compound 268. The fifth group was the positive control for weight loss, Rimonabant. All mice were dosed BID at approximately 6:00 am and again at approximately 4:00 pm. The positive control rimonabant was administered at a dose of 10 mg/kg in the afternoon and the morning dosing was vehicle (no compound).
6-Week Dexa Analysis after Multiple Weeks of Dosing Compounds
Compounds of the present invention were dosed for multiple weeks and the mice were analyzed to determine whether weight loss seen in Example 93 was due to a loss in fat or lean mass.
In this example, the protocol from Example 93 was utilized. The day of experiment, the mice were anesthetized using 2.5% avertin [tert-amyl alcohol (Aldrich #15,256-3) and 2,2,2-tribromoethanol (Aldrich # T4, 840-2)]. Their body composition was assessed using the PIXImus2 X-ray unit (GE Lunar Corporation, Madison, Wis.) connected to a computer equipped with LUNAR PIXImus2 software. The head region of each mouse was excluded from the analysis. The following measurements were automatically measured or calculated by the PIXImus2 software: bone mineral density (BMD), bone mineral content (BMC), bone area (B Area), tissue area (T Area), percent fat, and total tissue mass (TTM). Fat mass, the percentage of lean mass, and lean mass, were calculated manually as follows: % Lean=100−% Fat Lean Mass=TTM×(100−% Fat) Fat Mass=TTM×% Fat

For orientation: EC50 means the concentration that produces a half-maximal response.

Turning to `CC(C)NCC(O)COc1cccc2ccccc12` (stereo not drawn) [propranolol, Propranolol], in data set [1], the “Cmax with versus without ABT pre-treatment” value is given as “significantly higher in ABT pre-treated mice”.

`O=C(NCCc1ccc(C(F)(F)F)cc1)[C@@H]1CCN1c1cc(N2CCC(CO)CC2)nc(C(F)(F)F)n1` [Compound 220, (S)-1-(6-(4-(hydroxymethyl)piperidin-1-yl)-2-(trifluoromethyl)pyrimidin-4-yl)-N-(4-(trifluoromethyl)-phenethyl)azetidine-2-carboxamide]: the EC50 in data set [2], in data set [3] and in data set [4] was less than 0.1 µM in each case.

As to `N#Cc1ccc(CCNC(=O)[C@@H]2CCCN2c2cc(-c3ccc(CO)cc3)nc(C(F)(F)F)n2)cc1` [Compound 146, (S)-N-(4-cyanophenethyl)-1-(6-(4-(hydroxymethyl)phenyl)-2-(trifluoromethyl)pyrimidin-4-yl)pyrrolidine-2-carboxamide], the EC50 in data set [2] is 1 to 30 µM; in data set [3] it was less than 0.1 µM; in data set [4], less than 0.1 µM.

As for `N[C@@H](CC(=O)N1CCn2c(nnc2C(F)(F)F)C1)Cc1cc(F)c(F)cc1F` [sitagliptin, Sitagliptin, reference compound], in data set [5], the “fat mass versus lean mass (DEXA)” value was “due to a loss in the Fat Mass” and the “loss in weight / total tissue mass (DEXA)” value is reported as “about the same loss in weight”.
